Values after ≈ are worked out from the molar mass of the structure shown.

The term IC50 denotes the concentration that gives 50% inhibition. High values mean lower potency, low ones higher potency.

Common to all, as to type: functional, cell-based
One assay relates to ABAE. Put plainly: Cytotoxicity against ABAE cells after 48 hrs by microplate assay. The following applies: Bos taurus.
Another assay has as its system A2780. Nature of the assay: Cytotoxicity against human A2780 cells after 48 hrs by microplate assay. The following applies: A2780, 48 h.
For another assay, the system named is PC-3. Nature of the assay: Cytotoxicity against human PC3 cells after 48 hrs by microplate assay. Conditions: PC-3, 48 h.
The test system of the next assay is LX-1. Put plainly: Cytotoxicity against human LX1 cells after 48 hrs by microplate assay. Conditions: LX-1, 48 h.
A further assay relates to HCT-116. Put plainly: Cytotoxicity against human HCT116 cells after 48 hrs by microplate assay. The following applies: HCT-116, 48 h.
Assay [1] in a line: Cytotoxicity against human drug-resistant A2780DDP cells after 48 hrs by microplate assay.
The next assay deals with HT-29. Nature of the assay: Cytotoxicity against human HT-29 cells after 48 hrs by microplate assay. The following applies: HT-29, 48 h.
For a further assay, the system named is K562. Nature of the assay: Cytotoxicity against human K562 cells after 48 hrs by microplate assay. The following applies: K562, 48 h.
Assay [2] can be described thus: Cytotoxicity against human drug-sensitive […] cells after 48 hrs by microplate assay.
Another assay has as its system SK-BR-3. Put plainly: Cytotoxicity against human SKBR3 cells after 48 hrs by microplate assay. Conditions: SK-BR-3, 48 h.

As for `C=CC(=C)CC[C@]1(C)[C@H]2C[C@H](OC(=O)C(C)CC)C=C3[C@H](OC(C)=O)O[C@H](OC(C)=O)[C@@]32[C@H](OC)C[C@@H]1C` (relative stereo), the IC50 in the assay on ABAE was 0.8 µg/mL (≈ 1.5 µM); with A2780 it was 2.9 µg/mL (≈ 5.44 µM); in the assay with PC-3 it was 3 µg/mL (≈ 5.63 µM); with LX-1, 1.2 µg/mL (≈ 2.25 µM); in the assay on HCT-116, 1 µg/mL (≈ 1.88 µM); in assay [1] it was 2.9 µg/mL (≈ 5.44 µM). The IC50 is 1.3 µg/mL (≈ 2.44 µM) in the assay on HT-29, 1.4 µg/mL (≈ 2.63 µM) in the assay with K562, 1.4 µg/mL (≈ 2.63 µM) in [2] and 3.5 µg/mL (≈ 6.57 µM) with SK-BR-3.

With `C=CC(=C)CC[C@]1(C)[C@H]2C[C@H](OC(=O)C(C)CC)C=C3[C@H](OC(C)=O)O[C@H](OC(C)=O)[C@@]32[C@H](O)C[C@@H]1C` (relative stereo), the IC50 in the assay on ABAE turned out to be 0.8 µg/mL (≈ 1.54 µM); in the assay with A2780, 2.9 µg/mL (≈ 5.59 µM); in the assay on PC-3, 2.8 µg/mL (≈ 5.4 µM); with LX-1 it was 1.1 µg/mL (≈ 2.12 µM); in the assay with HCT-116 it was 1.6 µg/mL (≈ 3.08 µM); in [1] it was 2.1 µg/mL (≈ 4.05 µM). The half-inhibitory concentration (IC50) in the assay on HT-29 came out at 1 µg/mL (≈ 1.93 µM); in the assay on K562, 1.4 µg/mL (≈ 2.7 µM); in assay [2], 1.2 µg/mL (≈ 2.31 µM); with SK-BR-3, 1.4 µg/mL (≈ 2.7 µM).

On to `C=C/C(C)=C/C[C@]1(C)[C@H]2C[C@H](OC(=O)C(C)CC)C=C3[C@H](OC(C)=O)O[C@H](OC(C)=O)[C@@]32[C@H](O)C[C@@H]1C` (relative stereo) [CASEARLUCIN A], for which the half-inhibitory concentration (IC50) with ABAE is 0.8 µg/mL (≈ 1.54 µM); with A2780, 3 µg/mL (≈ 5.78 µM); in the assay with PC-3, 2.5 µg/mL (≈ 4.82 µM); in the assay on LX-1, 1 µg/mL (≈ 1.93 µM); in the assay with HCT-116, 1.3 µg/mL (≈ 2.51 µM); in [1] it was 2.8 µg/mL (≈ 5.4 µM). Moreover, the 50% inhibitory concentration (IC50) with HT-29 was determined as 0.8 µg/mL (≈ 1.54 µM); with K562, 1.1 µg/mL (≈ 2.12 µM); in assay [2], 1 µg/mL (≈ 1.93 µM); in the assay on SK-BR-3, 1.2 µg/mL (≈ 2.31 µM).

With `C=C/C(C)=C/C[C@]1(C)[C@H]2C[C@H](OC(=O)C(C)CC)C=C3[C@H](OC(C)=O)O[C@H](OC(C)=O)[C@@]32[C@H](OC(C)=O)C[C@@H]1C` (relative stereo) [CASEARLUCIN C], the IC50 in the assay with ABAE came to 3.6 µg/mL (≈ 6.42 µM); in the assay with A2780 it was 2.8 µg/mL (≈ 4.99 µM); with PC-3 it was 15 µg/mL (≈ 26.8 µM); in the assay on LX-1 it was 5 µg/mL (≈ 8.92 µM); in the assay with HCT-116 it was 4.5 µg/mL (≈ 8.03 µM); in assay [1] it was 9.6 µg/mL (≈ 17.1 µM). Moreover, the concentration for half-maximal inhibition (IC50) worked out at 12 µg/mL (≈ 21.4 µM) in the assay on HT-29, 3.8 µg/mL (≈ 6.78 µM) with K562, 7.7 µg/mL (≈ 13.7 µM) in [2] and 14 µg/mL (≈ 25 µM) with SK-BR-3.

Take `C=CC(=C)CC[C@]1(C)[C@H]2C[C@H](OC(=O)C(C)CC)C=C3[C@H](OC(C)=O)O[C@H](OC(C)=O)[C@@]32[C@H](OC(C)=O)C[C@@H]1C` (relative stereo) [CASEARLUCIN D]: the half-maximal inhibitory concentration (IC50) in the assay with ABAE is 4.1 µg/mL (≈ 7.31 µM); with A2780, 2.9 µg/mL (≈ 5.17 µM); in the assay on PC-3, 13 µg/mL (≈ 23.2 µM); in the assay with LX-1, 3.9 µg/mL (≈ 6.96 µM); with HCT-116, 4.7 µg/mL (≈ 8.38 µM); in assay [1], 4.6 µg/mL (≈ 8.2 µM). Moreover, the concentration for half-maximal inhibition (IC50) stood at 6.2 µg/mL (≈ 11.1 µM) with HT-29, 3.9 µg/mL (≈ 6.96 µM) in the assay on K562, 9.4 µg/mL (≈ 16.8 µM) in [2] and 10 µg/mL (≈ 17.8 µM) with SK-BR-3.

Regarding `C=CC(=C)CC[C@]1(C)[C@H]2C[C@@H](OC(=O)C(C)CC)C=C3[C@H](OC(C)=O)O[C@H](OC(C)=O)[C@@]32[C@H](OC)C[C@@H]1C` (relative stereo) [CASEARLUCIN E], the half-maximal inhibitory concentration (IC50) turned out to be 0.9 µg/mL (≈ 1.69 µM) in the assay with ABAE; 2.9 µg/mL (≈ 5.44 µM) with A2780; 4.3 µg/mL (≈ 8.07 µM) with PC-3; 1.8 µg/mL (≈ 3.38 µM) in the assay with LX-1; 1.8 µg/mL (≈ 3.38 µM) with HCT-116; 4.1 µg/mL (≈ 7.7 µM) in assay [1]. For the same compound, the IC50 stood at 2.8 µg/mL (≈ 5.26 µM) in the assay on HT-29, 1.7 µg/mL (≈ 3.19 µM) in the assay with K562, 3 µg/mL (≈ 5.63 µM) in assay [2] and 3.9 µg/mL (≈ 7.32 µM) with SK-BR-3.

The record behind these values is ChEMBL document CHEMBL1159313, “Structure and stereochemistry of new cytotoxic clerodane diterpenoids from the bark of Casearia lucida from the Madagascar rainforest” (J Nat Prod, 2002).
